Experimental data taken from US20240139167A1, “LYSOSOME-ASSOCIATED MEMBRANE PROTEIN TARGETING COMPOUNDS AND USES THEREOF” (HADASIT MEDICAL RESEARCH SERVICES AND DEVELOPMENT LTD., priority 2021, published 2024).

Key:
APBD cells = test: Proteomics (nano LC-MS/MS, LFQ); type: cell-based, human
Protocol: Sample preparation for MS analysis. Cell lysates in RIPA buffer containing protease inhibitors were clarified by centrifugation and […] of protein was used for protein precipitation by the chloroform/methanol method. The precipitated proteins were solubilized in 100 μl of 8 M urea, 10 mM DTT, 25 mM Tris-HCl pH 8.0 and incubated for 30 min at 22 ° C. Iodoacetamide (55 mM) was added, and samples were incubated for 30 min (22 ° C., in the dark), followed by addition of DTT (10 mM). Fifty μl of the samples was transferred into a new tube, diluted by the addition of 7 volumes of 25 mM Tris-HCl pH 8.0 and sequencing-grade modified Trypsin (Promega Corp., Madison, WI) was added (0.35 μg/sample) followed by incubation overnight at 37° C. with gentle agitation. The samples were acidified by addition of 0.2% formic acid and desalted on C18 home-made Stage tips. Peptide concentration was determined by Absorbance at 280 nm and 0.75 μg of peptides were injected into the mass spectrometer.
Nano LC-MS/MS analysis. MS analysis was performed using a Q Exactive-HF mass spectrometer (Thermo Fisher Scientific, Waltham, MA USA) coupled on-line to a nanoflow UHPLC instrument, Ultimate 3000 Dionex (Thermo Fisher Scientific, Waltham, MA USA). Peptides dissolved in 0.1% formic acid were separated without a trap column over a 120 min acetonitrile gradient run at a flow rate of 0.3 μl/min on a reverse phase 25-cm-long C18 column (75 μm ID, 2 μm, 100 Å, Thermo PepMapRSLC). The instrument settings were as previously described. Survey scans (300-1,650 m/z, target value 3E6 charges, maximum ion injection time 20 ms) were acquired and followed by higher energy collisional dissociation (HCD)-based fragmentation (normalized collision energy 27). A resolution of 60,000 was used for survey scans and up to 15 dynamically chosen most abundant precursor ions, with “peptide preferable” profile were fragmented (isolation window 1.6 m/z). The MS/MS scans were acquired at a resolution of 15,000 (target value 1E5 charges, maximum ion injection times 25 ms). Dynamic exclusion was 20 sec. Data were acquired using Xcalibur software (Thermo Scientific). To avoid a carryover, the column was washed with 80% acetonitrile, 0.1% formic acid for 25 min between samples.
MS data analysis. Mass spectra data were processed using the MaxQuant computational platform, version 1.6.14.0. Peak lists were searched against the Uniprot human FASTA sequence database from May 19, 2020, containing 49,974 entries. […] Relative protein quantification in MaxQuant was performed using the label-free quantification (LFQ) algorithm. […]
To validate the imaging-based analysis of the cell features modulated by the diseased state and by Compound 1, the inventors analyzed the effect of the disease and the treatment on protein expression. […]

[1] = test system: LAMP1-KD and control APBD fibroblasts; test: ATP Rate Assay in LAMP1-KD and control cells; type: cell-based, human
Description: FIGS. 6A-6E include bar graphs of autophagic flux, determined by the extent of lysosomal inhibitors-dependent increase in the ratio of lipidated to non-lipidated LC3 (LC3II/LC3I) (6A); representative TEM images of liver tissue from 9.5 month old Gbe^ys/ys mice treated with Compound 11, or 5% DMSO vehicle (6B), G: Glycogen (alpha particles) and polyglucosan (structures with variable electron densities), L: Lysosomes, M: Mitochondria; right panel: lysosomal glycogen stain was quantified by ImageJ “count particle” tool; micrograph of LAMP1 knocked down and control APBD primary skin fibroblasts treated or not with Compound 1 and lysosomal inhibitors (LI) and quantification of 3 experiments and results of Student's t-tests. *, p<0.1; **, p<0.05; ***, p<0.01 (6C); graphs of lysosomal pH changes determined in APBD primary fibroblasts transduced with lentiviruses encoding for GFP or GFP-shLAMP1 and treated or not with Compound 1 for 24 h and confocal microscope images of cells treated with Lysosensor and stained for PAS (6D); and bar graph of ATP production rate assay in LAMP1-KD and GFP (Control) cells treated for 24 h (chronic) or on assay (acute) with Compound 1 (6E).
To test the effect of LAMP1-KD and Compound 1 on fuel utilization, the inventors again used the ATP Rate Assay (FIGS. 4A-4D) in LAMP1-KD and control APBD fibroblasts acutely or chronically treated with Compound 1.

[2] = test system: microglia cells from brains of 5XFAD mice; test: LC3, p62 and PAS staining of microglia from AD model; type: cell-based; conditions: 50 μM, 24 h
Protocol: FIGS. 19A-19B include fluorescent micrographs showing microglia cells which were isolated from the brains of AD modeling 5XFAD mice by CD11b magnetic beads. Microglia were then incubated for 24 h with (treated), or without (untreated) 50 μM 144DG11, fixed and stained for the autophagic substrates LC3 (19A) and p62 (19B) and for glycogen by PAS, all as indicated. Reduction in the levels of both LC3 and p62 indicate induction of autophagy which degrades these substrates.
Being the most pro-inflammatory tissue in the brain, microglia are currently at the epicenter of innovative therapeutic research for AD. Moreover, as neuroinflammation is now accepted as the main pathogenic factor in AD and as activation of microglia autophagy and mitophagy is a leading therapeutic strategy (see, for instance, Eshraghi et al., (2021)), 144DG11 holds promise as a potential AD therapeutic.

`COCCN(Cc1sccc1C)C(=O)c1cc(C)nc(O)c1` [Compound 1] was tested, and the “number of proteins down-modulated by APBD and up-modulated by compound” value (APBD cells) was 49, the “number of proteins up-modulated by APBD and down-modulated by compound” value (APBD cells) was 39 and the “share of all proteins modified” value (APBD cells; glycogen overladen (48 h starvation/24 h Gluc)) was 1.3%. For the same compound, the “share of all proteins modified” value (APBD cells; starved (48 h starvation)) was 1.7%, the ATP production ([1]; LAMP1-KD cells, non-starved, chronic and acute) was “significantly increased total and respiratory ATP production” and the ATP production ([1]; LAMP1-KD cells, starved, acute) was “increased both respiratory and glycolytic ATP”. For the same compound, the ATP production ([1]; LAMP1-KD cells, starved, chronic) was “only respiratory ATP production increased”, the ATP production ([1]; control cells, non-starved) was “only slightly influenced ATP production, and even acutely decreased it” and the ATP production ([1]; control cells, starved, acute) was “only increased respiratory ATP production”. For the same compound, the ATP production ([1]; control cells, starved, chronic) was “No significant effect”, the glycogen levels [2] was “did not lower glycogen levels” and the “total LC3 and p62” value [2] was “decrease”.
